Experiments:
[1] = tested on: MRSA strain 38; set-up: species or system S. aureus; settings: in vivo
[2] = tested on: S. aureus (MRSA strain 38); settings: in vivo, iv

Structure (SMILES): CN[C@H](CC(C)C)C(=O)N[C@H]1C(=O)N[C@@H](CC(N)=O)C(=O)N[C@H]2C(=O)N[C@H]3C(=O)N[C@H](C(=O)N[C@H](C(=O)O)c4cc(O)cc(O)c4-c4cc3ccc4O)[C@H](O)c3ccc(c(Cl)c3)Oc3cc2cc(c3O[C@@H]2O[C@H](CO)[C@@H](O)[C@H](O)[C@H]2O[C@H]2C[C@](C)(N)[C@H](O)[C@H](C)O2)Oc2ccc(cc2Cl)[C@H]1O [vancomycin]
- mIL-1ra level in abscess fluid [1]: not significantly reduced
- mIL-6 level in abscess fluid [1]: not significantly reduced
- neutrophil and eosinophil counts [1]: lower
- IFN-γ in serum [2]: 2.98 ± 1.64
- IL-1β in serum [2]: 3.51 ± 1.08
- IL-6 in serum [2]: 379.72 ± 335.45
- IL-10 in serum [2]: 16.75 ± 6.67
- IL-12p70 in serum [2]: 61.55 ± 23.71
- KC/GRO in serum [2]: 260.69 ± 122.01
- TNF-α in serum [2]: 1.46 ± 0.68

— patent US20160039914A1 (priority 2013, published 2016)
